The results in this text go back to article PMC6468028 (Protein & Cell, 2018).

In data set [1] the target is T1, L-fucokinase/GDP-fucose pyrophosphorylase (FKP); BfFKP (Bacteroides fragilis, UniProt Q58T34).
T1 construct: full-length wild type, overexpressed and purified; about 105 kDa protomer, tetramer; model covers residues 71-398 and 467-949
Briefly: NADH coupled assay of fucokinase activity. It counts as biochemical. The settings on record: co-substrate ATP; C-terminal fucokinase domain.

Data set [2] deals with the molecule itself. Briefly: SEC; purified FKP on size exclusion chromatography; eluted at the volume of the 440 kDa molecular weight marker. Background: SEC sorts molecules by how far they enter the pores of the column.

On to `C[C@@H]1OC(O)[C@@H](O)[C@H](O)[C@@H]1O` (stereo partly drawn) [L-fucose, 6-deoxy-L-galactose], for which the “NADH coupled assay of fucokinase activity” value in data set [1] was “We applied the NADH coupled assay and the pyrophosphate assay to characterize the fucokinase activity”.

B1: L-fucokinase/GDP-fucose pyrophosphorylase (FKP) from Bacteroides fragilis 9343, full-length wild type (enzyme, UniProt Q58T34 1-949, looked up)
chain: MQKLLSLPSNLVQSFHELERVNRTDWFCTSDPVGKKLGSGGGTSWLLEECYNEYSDGATFGEWLEKEKRILLHAGGQSRRLPGYAPSGKILTPVPVFRWERGQHLGQNLLSLQLPLYEKIMSLAPDKLHTLIASGDVYIRSEKPLQSIPEADVVCYGLWVDPSLATHHGVFASDRKHPEQLDFMLQKPSLAELESLSKTHLFLMDIGIWLLSDRAVEILMKRSHKESSEELKYYDLYSDFGLALGTHPRIEDEEVNTLSVAILPLPGGEFYHYGTSKELISSTLSVQNKVYDQRRIMHRKVKPNPAMFVQNAVVRIPLCAENADLWIENSHIGPKWKIASRHIITGVPENDWSLAVPAGVCVDVVPMGDKGFVARPYGLDDVFKGDLRDSKTTLTGIPFGEWMSKRGLSYTDLKGRTDDLQAVSVFPMVNSVEELGLVLRWMLSEPELEEGKNIWLRSEHFSADEISAGANLKRLYAQREEFRKGNWKALAVNHEKSVFYQLDLADAAEDFVRLGLDMPELLPEDALQMSRIHNRMLRARILKLDGKDYRPEEQAAFDLLRDGLLDGISNRKSTPKLDVYSDQIVWGRSPVRIDMAGGWTDTPPYSLYSGGNVVNLAIELNGQPPLQVYVKPCKDFHIVLRSIDMGAMEIVSTFDELQDYKKIGSPFSIPKAALSLAGFAPAFSAVSYASLEEQLKDFGAGIEVTLLAAIPAGSGLGTSSILASTVLGAINDFCGLAWDKNEICQRTLVLEQLLTTGGGWQDQYGGVLQGVKLLQTEAGFAQSPLVRWLPDHLFTHPEYKDCHLLYYTGITRTAKGILAEIVSSMFLNSSLHLNLLSEMKAHALDMNEAIQRGSFVEFGRLVGKTWEQNKALDSGTNPPAVEAIIDLIKDYTLGYKLPGAGGGGYLYMVAKDPQAAVRIRKILTENAPNPRARFVEMTLSDKGFQVSRS
Usually stoichiometry N stands for the number of molecules, sites or subunits per partner or assembly. Regarding B1, in data set [2], the “stoichiometry N” value turned out to be 4.
